Test results as given in publication PMC12152147, “DDB1 engagement defines the selectivity of S656 analogs for cyclin K degradation over CDK inhibition” (EMBO Reports, 2025).
Like-named read-outs stand apart in the source and are kept apart here.

What was measured:
OCI-AML5 cells = assay: Dose-response proliferative assay in OCI-AML5 (4 days, CellTiterGlo); assay type: cell-based, H. sapiens; details: read-out: IC50 in AML5
Experimental: Cell lines were purchased from the ATCC or donated from collaborators. OCI-AML5 cell line was cultured in αMEM, 10% heat-inactivated FBS supplemented with 10 ng/mL GM-CSF, OCI-AML1, U2OS and HEK293T cell lines in DMEM, 10% heat-inactivated FBS. Cells were maintained at 37 °C in 5% CO2 atmosphere.
Dose-response assays in primary AML specimens were performed as in chemical screen (see above) with the exception that compounds were tested in serial dilution (8 dilutions, 1:4, 10 μM down to 0.5 nM). Dose-response assays in OCI-AML5 cell line were conducted similarly with the following modifications: 300 cells per well were seeded in 50 μL of cell line media and cell viability was evaluated after 4 days in culture.

cyclin KeGFP = assay: Cyclin KeGFP reporter system (eGFP/mCherry MFI by flow cytometry);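 note: 10 μM compound for 3 h relative to DMSO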; assay type: cell-based, H. sapiens; details: cyclin K-eGFP reporter
Experimental: We used the cyclin KeGFP reporter system previously described (Słabicki et al, [2020]). Lentiviral vector (Addgene plasmid #169930) was used to infect OCI-AML5 at a MOI of 5 and were selected with puromycin. Cells were seeded in methylcellulose and let grown as colonies for 10 days. Colonies were isolated, expanded and selected based on cyclin KeGFP fluorescence in presence and absence of cyclin K degrader molecules. Selected G7 clone was used for all reported experiments. Fluorescent signal of cyclin KeGFP and mCherry were quantified by flow cytometry (BD LSRII) in each condition and the geometric mean fluorescence intensity (MFI) were calculated using FlowJo (BD Biosciences). The ratio of eGFP to mCherry was normalized to DMSO-treated cells.

CDK1 = biological target: T1, CDK1 (Homo sapiens, UniProt P06493); assay: CDK1 in vitro kinase activity, single concentration 1 μM; assay type: biochemical; details: single concentration 1 μM
T1 construct: purchased BPS Bioscience 79597
T1 sequence (P06493 whole entry): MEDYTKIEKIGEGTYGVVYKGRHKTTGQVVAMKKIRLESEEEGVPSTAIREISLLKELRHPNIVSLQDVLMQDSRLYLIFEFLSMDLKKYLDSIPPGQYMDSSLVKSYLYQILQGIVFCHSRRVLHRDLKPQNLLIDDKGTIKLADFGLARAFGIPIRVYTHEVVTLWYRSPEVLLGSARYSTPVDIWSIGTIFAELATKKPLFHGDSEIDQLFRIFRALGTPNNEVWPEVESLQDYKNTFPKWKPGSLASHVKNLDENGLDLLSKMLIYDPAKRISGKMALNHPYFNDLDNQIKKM
T1 sequence (P14635 whole entry partner): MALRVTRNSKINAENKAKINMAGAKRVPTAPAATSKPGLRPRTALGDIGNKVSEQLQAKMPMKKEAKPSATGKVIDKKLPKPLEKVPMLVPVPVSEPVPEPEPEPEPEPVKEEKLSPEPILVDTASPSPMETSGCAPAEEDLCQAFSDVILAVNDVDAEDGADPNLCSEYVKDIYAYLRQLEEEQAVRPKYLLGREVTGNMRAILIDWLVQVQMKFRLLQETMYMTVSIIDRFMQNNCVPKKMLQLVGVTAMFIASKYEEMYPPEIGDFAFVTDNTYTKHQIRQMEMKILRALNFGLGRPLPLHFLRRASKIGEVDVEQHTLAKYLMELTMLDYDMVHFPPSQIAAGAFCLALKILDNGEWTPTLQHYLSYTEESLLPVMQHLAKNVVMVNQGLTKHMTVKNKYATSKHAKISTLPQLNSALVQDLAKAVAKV
Experimental: (§1) Kinase activity was assessed using the kinase assay kits from BPS Bioscience for CDK1, CDK9 and CDK12 with Kinase Glo MAX in duplicates. Compounds were tested at a single concentration of 1 μM for CDK1 and CDK9 activity, and in a dilution ranging from 0.64 nM to 50 μM for CDK12 activity. Chemiluminescence was read using the Neo Synergy BioTek plate reader.

CDK9/CyclinT = biological target: T2, CDK9/CyclinT (Homo sapiens, UniProt P50750); assay: CDK9/CyclinT in vitro kinase activity, single concentration 1 μM; assay type: biochemical; details: single concentration 1 μM
T2 construct: purchased BPS Bioscience 79628
T2 sequence (P50750 whole entry): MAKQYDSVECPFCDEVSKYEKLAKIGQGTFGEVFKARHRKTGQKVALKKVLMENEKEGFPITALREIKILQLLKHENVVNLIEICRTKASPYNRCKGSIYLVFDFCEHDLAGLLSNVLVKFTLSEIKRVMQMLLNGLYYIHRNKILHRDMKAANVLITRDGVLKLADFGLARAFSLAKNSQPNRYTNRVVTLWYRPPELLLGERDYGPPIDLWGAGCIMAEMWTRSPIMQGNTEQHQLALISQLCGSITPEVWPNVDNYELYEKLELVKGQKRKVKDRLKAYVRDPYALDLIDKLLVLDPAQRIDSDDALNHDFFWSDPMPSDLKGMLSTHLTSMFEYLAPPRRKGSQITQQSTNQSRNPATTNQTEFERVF
T2 sequence (O60563 whole entry partner): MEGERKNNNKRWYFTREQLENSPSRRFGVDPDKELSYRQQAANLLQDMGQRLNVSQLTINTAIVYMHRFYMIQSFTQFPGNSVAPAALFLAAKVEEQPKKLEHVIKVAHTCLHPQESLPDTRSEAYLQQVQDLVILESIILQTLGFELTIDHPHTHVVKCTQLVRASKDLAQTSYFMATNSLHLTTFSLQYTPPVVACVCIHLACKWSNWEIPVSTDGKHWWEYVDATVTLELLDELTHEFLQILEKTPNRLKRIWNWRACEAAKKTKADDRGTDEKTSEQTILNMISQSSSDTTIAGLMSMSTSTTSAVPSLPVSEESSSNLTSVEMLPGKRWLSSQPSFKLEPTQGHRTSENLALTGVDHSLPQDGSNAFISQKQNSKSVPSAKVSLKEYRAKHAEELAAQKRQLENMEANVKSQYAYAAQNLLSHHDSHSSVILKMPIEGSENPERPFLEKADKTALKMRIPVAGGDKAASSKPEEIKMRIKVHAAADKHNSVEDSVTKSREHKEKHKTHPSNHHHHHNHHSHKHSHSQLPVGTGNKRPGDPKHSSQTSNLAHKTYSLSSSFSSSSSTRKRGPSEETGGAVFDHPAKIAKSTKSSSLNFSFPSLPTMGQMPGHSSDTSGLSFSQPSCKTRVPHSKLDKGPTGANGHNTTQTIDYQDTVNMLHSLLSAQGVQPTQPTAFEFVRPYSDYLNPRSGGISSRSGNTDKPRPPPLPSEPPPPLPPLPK
Experimental: as §1

[1] = test system: OCI-AML5 cells expressing shRNAs targeting CDK1, 2, 4, 7, 9, cyclin K; assay: Dose response in OCI-AML5 expressing shRNAs targeting CDK1, 2, 4, 7, 9, cyclin K or control; assay type: cell-based, H. sapiens; details: for Class: class from shRNA IC50 profile and cyclin K-eGFP degradation; for class based on cellular selectivity: IC50 in shRNA OCI-AML5 cells and cyclin KeGFP degradation
[2] = test system: OCI-AML5 cells expressing shRNA targeting CUL4A or CUL4B; assay: Dose response in OCI-AML5 expressing shRNAs targeting CUL4A, CUL4B or control; assay type: cell-based, H. sapiens; details: ratio of IC50 in shCUL4A vs shCTRL OCI-AML5 cells
[3] = Homo sapiens, OCI-AML-5, OCI-AML5 cells
[4] = Homo sapiens, OCI-AML-5, OCI-AML5 expressing shRNA CCNK (cyclin K), read-out: IC50 shRNA CCNK
[5] = Homo sapiens, OCI-AML-5, OCI-AML5 expressing shRNA CDK1, read-out: IC50 shRNA CDK1
[6] = Homo sapiens, OCI-AML-5, OCI-AML5 expressing shRNA CDK2, read-out: IC50 shRNA CDK2
[7] = Homo sapiens, OCI-AML-5, OCI-AML5 expressing shRNA CDK4, read-out: IC50 shRNA CDK4
[8] = Homo sapiens, OCI-AML-5, OCI-AML5 expressing shRNA CDK7, read-out: IC50 shRNA CDK7
[9] = Homo sapiens, OCI-AML-5, OCI-AML5 expressing shRNA CDK9, read-out: IC50 shRNA CDK9

| SMILES | IC50 (OCI-AML5 cells; [3]) | inhibition at 1 µM (CDK1) | inhibition at 1 µM (CDK9/CyclinT) | IC50 [1, 4] | IC50 [1, 5] | IC50 [1, 6] | IC50 [1, 7] | IC50 [1, 8] | IC50 [1, 9] | % degradation cyclin K-eGFP (cyclin KeGFP) | Class [1] | Ratio shCUL4A/shCTRL [2] | class based on cellular selectivity [1] | other results |
| --- | --- | --- | --- | --- | --- | --- | --- | --- | --- | --- | --- | --- | --- | --- |
| [N-]=[N+]=Nc1ccc(CC(=O)Nc2ncc(SCc3cccnc3)s2)cc1 [UOM-005062] | 2.18 µM | 63% | 99% | 0.921 µM | 1.28 µM | 2.31 µM | 2.62 µM | 2.52 µM | 1.49 µM | 45% | mixed 1-2 | 1.35 |  |  |
| O=C(Cc1ccccc1)Nc1ncc(SCc2cccnc2)s1 [UOM-005190] |  |  |  |  |  |  |  |  |  | 26% | 2 | 1.19 |  | IC50 (OCI-AML5 cells; OCI-AML5 cells): 2.38 µM; % CDK1 inhibition (CDK1): 79%; % CDK9 inhibition (CDK9/CyclinT): 24%; IC50 ([1]; OCI-AML5 expressing shRNA CCNK (cyclin K), read-out: IC50 shRNA CCNK): 2.53 µM; IC50 ([1]; OCI-AML5 expressing shRNA CDK1, read-out: IC50 shRNA CDK1): 0.815 µM; IC50 ([1]; OCI-AML5 expressing shRNA CDK2, read-out: IC50 shRNA CDK2): 2.69 µM; IC50 ([1]; OCI-AML5 expressing shRNA CDK4, read-out: IC50 shRNA CDK4): 3.28 µM; IC50 ([1]; OCI-AML5 expressing shRNA CDK7, read-out: IC50 shRNA CDK7): 2.9 µM; IC50 ([1]; OCI-AML5 expressing shRNA CDK9, read-out: IC50 shRNA CDK9): 1.66 µM |
| O=C(Cc1ccc(F)cc1)Nc1ncc(SCc2cccnc2)s1 [UOM-005197] | 2.79 µM | 59% | 57% | 3.58 µM | 1.35 µM | 2.69 µM | 3.4 µM | 3.36 µM | 1.81 µM | 24% | 2 | 1.15 | Class II |  |
| O=C(Cc1ccc(Cl)cc1)Nc1ncc(SCc2cccnc2)s1 [UOM-005198] | 2.92 µM | 51% | 32% | 3.04 µM | 1.3 µM | 2.76 µM | 3.43 µM | 3.43 µM | 2.1 µM | 33% | 2 | 1.12 | Class II |  |
| O=C(Cc1ccc(Br)cc1)Nc1ncc(SCc2cccnc2)s1 [UOM-005199] | 2.56 µM | 60% | 100% | 1.5 µM | 1.18 µM | 2.94 µM | 2.83 µM | 2.8 µM | 1.78 µM | 64% | mixed 1-2 | 0.67 |  |  |
| O=C(Cc1ccc(I)cc1)Nc1ncc(SCc2cccnc2)s1 [UOM-005200] | 1.06 µM | 87% | 62% | 0.368 µM | 1.07 µM | 1.28 µM | 1.11 µM | 1.51 µM | 1.02 µM | 77% | 1 | 2.36 | Class I (effective cyclin K MGDs (decreased IC50 in cyclin K depleted cells only, and >65% degradation of cyclin KeGFP)) |  |
| COc1ccc(CC(=O)Nc2ncc(SCc3cccnc3)s2)cc1 [UOM-005201] | 3 µM | 69% | 54% | 2.01 µM | 1.03 µM | 2.88 µM | 3.38 µM | 3.11 µM | 1.39 µM | 55% | 2 | 0.99 | Class II |  |
| Cc1ccc(CC(=O)Nc2ncc(SCc3cccnc3)s2)cc1 [UOM-005202] | 3.4 µM | 65% | 50% | 2.94 µM | 0.929 µM | 2.83 µM | 3.72 µM | 2.86 µM | 1.8 µM | 28% | 2 | 0.7 |  |  |

Further lines, with some results ahead:

| IC50 (OCI-AML5 cells; [3]) | inhibition at 1 µM (CDK1) | inhibition at 1 µM (CDK9/CyclinT) | IC50 [1, 4] | IC50 [1, 5] | IC50 [1, 6] | IC50 [1, 7] | IC50 [1, 8] | IC50 [1, 9] | SMILES | % degradation cyclin K-eGFP (cyclin KeGFP) | Class [1] | Ratio shCUL4A/shCTRL [2] | class based on cellular selectivity [1] | other results |
| --- | --- | --- | --- | --- | --- | --- | --- | --- | --- | --- | --- | --- | --- | --- |
| > 10 µM | 46% | 39% | > 10 µM | 6.25 µM | > 10 µM | > 10 µM | > 10 µM | > 10 µM | CC(C)(C)OC(=O)N1CCC(CC(=O)Nc2ncc(SCc3cccnc3)s2)C1 (centres unmarked) [UOM-005226] | 2% | 2 | 1.24 |  |  |
| 2.45 µM | 100% | 100% | 1.85 µM | 0.908 µM | 2.32 µM | 2.28 µM | 2.24 µM | 1.18 µM | O=C(Cc1cccnc1)Nc1ncc(SCc2cccnc2)s1 [UOM-005249] | 10% | 2 | 0.98 | Class II |  |
| 0.361 µM | 70% | 67% | 0.135 µM | 0.502 µM | 0.544 µM | 0.509 µM | 0.578 µM | 0.369 µM | O=C(Cc1ccc2ccccc2c1)Nc1ncc(SCc2cccnc2)s1 [UOM-005428] | 80% | 1 | 2.81 | Class I (effective cyclin K MGDs (decreased IC50 in cyclin K depleted cells only, and >65% degradation of cyclin KeGFP)) |  |
| > 10 µM | 34% | 20% | > 10 µM | 3.22 µM | > 10 µM | > 10 µM | > 10 µM | 5.92 µM | O=C(Cc1cnccn1)Nc1ncc(SCc2cccnc2)s1 [UOM-005482] | 0% | 2 |  |  |  |
